Our source for the inhibition, IC50 and Ratio IC50 values is ChEMBL document CHEMBL3739348, “Novel pyrrole derivatives as selective CHK1 inhibitors: design, regioselective synthesis and molecular modeling” (Medchemcomm, 2015).

Assay [1] concerns the target Tyrosine-protein kinase Lck (Homo sapiens) (UniProt P06239). Put plainly: Inhibition of LCK (unknown origin) at 30 uM by microfluidic assay relative to control.
Assay [2] deals with RAC-beta serine/threonine-protein kinase (Homo sapiens) (UniProt P31751). The experiment in a line: Inhibition of AKT2 (unknown origin) at 30 uM by microfluidic assay relative to control.
Sequence of RAC-beta serine/threonine-protein kinase (Homo sapiens) (P31751 whole entry): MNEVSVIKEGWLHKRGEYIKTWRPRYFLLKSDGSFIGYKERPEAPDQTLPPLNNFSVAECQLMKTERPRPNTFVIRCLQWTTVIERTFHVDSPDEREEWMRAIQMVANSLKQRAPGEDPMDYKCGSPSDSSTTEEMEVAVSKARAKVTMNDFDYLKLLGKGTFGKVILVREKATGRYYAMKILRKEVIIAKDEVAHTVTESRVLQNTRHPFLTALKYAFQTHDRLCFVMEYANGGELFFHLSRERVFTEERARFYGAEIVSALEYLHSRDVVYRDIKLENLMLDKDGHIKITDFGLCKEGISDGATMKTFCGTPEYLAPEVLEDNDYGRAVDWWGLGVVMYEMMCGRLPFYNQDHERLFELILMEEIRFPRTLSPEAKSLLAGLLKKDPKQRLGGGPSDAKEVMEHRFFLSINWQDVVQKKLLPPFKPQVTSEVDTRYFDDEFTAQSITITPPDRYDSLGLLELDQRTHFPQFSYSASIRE
For assay [3], the target named is Hepatocyte growth factor receptor (Homo sapiens) (UniProt P08581). Put plainly: Inhibition of MET (unknown origin) at 30 uM by microfluidic assay relative to control.
Sequence of Hepatocyte growth factor receptor (Homo sapiens) (P08581 whole entry): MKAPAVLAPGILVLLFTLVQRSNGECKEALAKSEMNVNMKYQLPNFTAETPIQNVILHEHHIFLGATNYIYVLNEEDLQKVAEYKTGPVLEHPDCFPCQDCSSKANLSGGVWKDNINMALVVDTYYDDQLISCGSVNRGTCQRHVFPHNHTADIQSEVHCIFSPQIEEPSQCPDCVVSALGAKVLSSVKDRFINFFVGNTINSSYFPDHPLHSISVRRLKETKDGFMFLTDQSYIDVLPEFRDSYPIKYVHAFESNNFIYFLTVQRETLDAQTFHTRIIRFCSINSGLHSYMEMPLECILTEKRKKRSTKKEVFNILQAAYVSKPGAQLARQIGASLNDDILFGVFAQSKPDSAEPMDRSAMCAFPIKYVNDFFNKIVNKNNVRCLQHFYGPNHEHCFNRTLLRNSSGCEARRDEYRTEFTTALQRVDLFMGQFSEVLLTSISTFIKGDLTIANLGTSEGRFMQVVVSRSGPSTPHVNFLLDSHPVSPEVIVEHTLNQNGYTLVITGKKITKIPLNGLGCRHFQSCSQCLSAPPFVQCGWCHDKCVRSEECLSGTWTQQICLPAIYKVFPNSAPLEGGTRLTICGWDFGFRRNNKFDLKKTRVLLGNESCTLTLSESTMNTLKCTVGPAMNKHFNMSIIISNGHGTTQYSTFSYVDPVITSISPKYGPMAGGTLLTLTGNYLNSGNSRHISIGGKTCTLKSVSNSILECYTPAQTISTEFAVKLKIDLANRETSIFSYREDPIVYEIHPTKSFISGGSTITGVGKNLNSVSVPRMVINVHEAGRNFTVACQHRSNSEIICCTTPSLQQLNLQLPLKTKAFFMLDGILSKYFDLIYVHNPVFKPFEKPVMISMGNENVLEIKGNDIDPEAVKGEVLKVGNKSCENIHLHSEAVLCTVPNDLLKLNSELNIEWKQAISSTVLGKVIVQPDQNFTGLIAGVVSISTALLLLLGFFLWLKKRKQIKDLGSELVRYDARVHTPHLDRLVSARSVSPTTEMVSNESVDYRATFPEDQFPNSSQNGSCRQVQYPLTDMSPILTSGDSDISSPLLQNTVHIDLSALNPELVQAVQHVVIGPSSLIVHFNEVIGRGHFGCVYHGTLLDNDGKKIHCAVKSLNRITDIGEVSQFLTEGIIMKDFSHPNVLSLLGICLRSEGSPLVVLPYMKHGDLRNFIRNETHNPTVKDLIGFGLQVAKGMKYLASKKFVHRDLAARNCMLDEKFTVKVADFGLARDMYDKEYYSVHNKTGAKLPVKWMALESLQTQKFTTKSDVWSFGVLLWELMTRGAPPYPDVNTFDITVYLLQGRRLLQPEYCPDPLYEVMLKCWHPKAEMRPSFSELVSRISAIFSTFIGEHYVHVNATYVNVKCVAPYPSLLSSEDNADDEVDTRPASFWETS
The target of assay [4] is T1, Serine/threonine-protein kinase D2 (Homo sapiens) (UniProt Q9BZL6).
T1 sequence (whole entry): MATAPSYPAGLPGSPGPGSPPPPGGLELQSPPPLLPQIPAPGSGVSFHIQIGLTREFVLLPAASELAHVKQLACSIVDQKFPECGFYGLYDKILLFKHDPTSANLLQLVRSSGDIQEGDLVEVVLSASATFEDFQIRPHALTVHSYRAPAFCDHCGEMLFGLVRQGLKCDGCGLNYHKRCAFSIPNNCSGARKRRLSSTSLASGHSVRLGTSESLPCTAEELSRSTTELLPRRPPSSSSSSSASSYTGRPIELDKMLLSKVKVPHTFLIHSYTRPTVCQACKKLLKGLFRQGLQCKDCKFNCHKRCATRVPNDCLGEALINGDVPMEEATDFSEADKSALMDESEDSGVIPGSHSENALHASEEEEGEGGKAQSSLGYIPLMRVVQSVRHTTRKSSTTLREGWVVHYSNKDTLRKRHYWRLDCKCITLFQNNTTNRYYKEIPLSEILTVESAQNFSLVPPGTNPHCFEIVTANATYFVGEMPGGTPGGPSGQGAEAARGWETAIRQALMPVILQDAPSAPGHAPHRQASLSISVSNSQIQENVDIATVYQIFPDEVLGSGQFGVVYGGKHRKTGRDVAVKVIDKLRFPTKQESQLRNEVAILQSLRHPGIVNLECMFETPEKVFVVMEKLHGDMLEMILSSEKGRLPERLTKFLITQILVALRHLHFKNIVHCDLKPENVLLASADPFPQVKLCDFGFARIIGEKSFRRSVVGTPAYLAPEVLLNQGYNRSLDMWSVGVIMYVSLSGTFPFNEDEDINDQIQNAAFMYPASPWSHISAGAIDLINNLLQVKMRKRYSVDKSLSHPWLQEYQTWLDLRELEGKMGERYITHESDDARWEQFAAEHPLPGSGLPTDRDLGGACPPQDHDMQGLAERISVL
Put plainly: Inhibition of PKD2 (unknown origin) at 30 uM by microfluidic assay relative to control.

In assay [5] the target is Epidermal growth factor receptor (Homo sapiens, UniProt P00533). The experiment in a line: Inhibition of EGFR (unknown origin) by microfluidic assay relative to control.
Sequence of Epidermal growth factor receptor (P00533 whole entry): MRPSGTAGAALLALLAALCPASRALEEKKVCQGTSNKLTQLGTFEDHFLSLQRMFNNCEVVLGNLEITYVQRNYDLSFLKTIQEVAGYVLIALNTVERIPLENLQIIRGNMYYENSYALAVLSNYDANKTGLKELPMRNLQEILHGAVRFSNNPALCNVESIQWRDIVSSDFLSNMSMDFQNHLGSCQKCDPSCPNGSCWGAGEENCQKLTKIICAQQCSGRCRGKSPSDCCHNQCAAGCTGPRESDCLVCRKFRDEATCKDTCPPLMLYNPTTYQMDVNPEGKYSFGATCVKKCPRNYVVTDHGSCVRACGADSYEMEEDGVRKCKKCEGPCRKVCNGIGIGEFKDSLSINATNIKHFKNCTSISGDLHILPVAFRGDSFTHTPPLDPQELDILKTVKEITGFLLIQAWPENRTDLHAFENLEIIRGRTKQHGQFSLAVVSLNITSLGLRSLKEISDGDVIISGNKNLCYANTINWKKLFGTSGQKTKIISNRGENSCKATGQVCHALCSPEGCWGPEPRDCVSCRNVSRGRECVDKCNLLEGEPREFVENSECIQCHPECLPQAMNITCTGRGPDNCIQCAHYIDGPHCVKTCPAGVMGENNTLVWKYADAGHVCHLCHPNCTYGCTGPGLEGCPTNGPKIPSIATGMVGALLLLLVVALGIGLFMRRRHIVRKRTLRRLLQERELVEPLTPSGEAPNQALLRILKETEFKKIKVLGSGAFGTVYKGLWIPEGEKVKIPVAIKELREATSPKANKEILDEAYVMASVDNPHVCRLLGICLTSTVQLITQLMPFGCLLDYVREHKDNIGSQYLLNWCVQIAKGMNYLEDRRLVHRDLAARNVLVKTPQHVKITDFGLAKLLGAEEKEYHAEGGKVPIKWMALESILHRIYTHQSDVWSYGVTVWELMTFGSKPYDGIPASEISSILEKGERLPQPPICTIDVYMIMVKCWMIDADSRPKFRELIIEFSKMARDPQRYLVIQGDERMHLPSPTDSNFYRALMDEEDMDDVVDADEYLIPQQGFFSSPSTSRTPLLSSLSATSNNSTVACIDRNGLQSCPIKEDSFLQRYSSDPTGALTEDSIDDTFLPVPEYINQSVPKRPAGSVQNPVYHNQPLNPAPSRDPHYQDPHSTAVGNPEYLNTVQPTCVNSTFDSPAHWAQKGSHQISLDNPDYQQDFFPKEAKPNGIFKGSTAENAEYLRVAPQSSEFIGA
The species entered for assay [6] is Homo sapiens. The experiment in a line: Selectivity index, ratio of IC50 for EGFR (unknown origin) to IC50 for CHK1 (unknown origin).
The species entered for assay [7] is Homo sapiens. The experiment in a line: Selectivity index, ratio of IC50 for VEGFR-2 (unknown origin) to IC50 for CHK1 (unknown origin).

Sequence of Tyrosine-protein kinase Lck (Homo sapiens) (P06239 2-509 limits assumed): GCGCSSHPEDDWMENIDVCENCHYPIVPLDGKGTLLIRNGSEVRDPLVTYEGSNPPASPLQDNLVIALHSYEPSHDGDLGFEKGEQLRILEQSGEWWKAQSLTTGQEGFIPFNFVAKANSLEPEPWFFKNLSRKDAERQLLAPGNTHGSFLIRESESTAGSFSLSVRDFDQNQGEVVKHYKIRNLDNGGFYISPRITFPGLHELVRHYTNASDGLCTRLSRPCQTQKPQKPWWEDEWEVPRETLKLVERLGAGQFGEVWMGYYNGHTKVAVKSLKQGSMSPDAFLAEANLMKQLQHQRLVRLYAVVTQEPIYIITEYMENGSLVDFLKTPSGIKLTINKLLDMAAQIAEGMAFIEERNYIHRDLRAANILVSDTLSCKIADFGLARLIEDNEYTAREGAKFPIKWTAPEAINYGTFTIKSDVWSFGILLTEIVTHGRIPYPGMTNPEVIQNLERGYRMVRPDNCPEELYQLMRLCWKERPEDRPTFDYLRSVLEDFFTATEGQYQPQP

As for `Cc1[nH]c(-c2ccccc2)c(-c2ccccc2)c1C(=O)c1cn(-c2ccccc2)nc1C(=O)Nc1ccccc1`, the inhibition in assay [1] stood at 25%; in assay [2], 86%; in assay [3] it was 3%; in assay [4], 65%.
For `Cc1[nH]c(-c2ccccc2)c(-c2ccccc2)c1C(=O)c1coc2c1cc(O)c1ccccc12`, the inhibition was 32% in assay [1], 56% in assay [2], 34% in assay [3] and 54% in assay [4]. This molecule also had an IC50 in assay [5] of 5.1 µM. Besides, the Ratio IC50 is 16.4 in the assay filed under Homo sapiens [6] and 14.7 in the assay listed under Homo sapiens [7].
For the molecule `Cc1[nH]c(-c2ccccc2)c(-c2ccccc2)c1-c1nnc(O)c2nn(-c3ccccc3)cc12`, the inhibition was determined as 32% in assay [1], 56% in assay [2], 4% in assay [3] and 32% in assay [4].
